What was measured:
[1] = test system: MCF7 cells; test: 3D Cell Titer Glo viability of MCF7 ER+ breast cancer cells; type: cell-based; conditions: 0, 1, 2 and 5 μM, 4 days, 3D Cell Titer Glo (FIG. 7)
Method: FIG. 7a. PTK6 degrader treatment suppresses growth of ER+ breast cancer cells. ER+ breast cancer cells (MCF-7) were treated with indicated concentrations of top candidate degraders, negative control compounds or PTK6 kinase activity inhibitor for 24 hours, lysed and proteins were resolved by SDS-PAGE. PTK6 expression was interrogated by Western analysis. FIG. 7b. MCF-7 cells were seeded into 3D Matrigel cultures and treated with indicated PTK6 degraders or PTK6 kinase inhibitor for 4 days. Viability was quantified using 3-D Cell Titer glo (Promega).
MCF7 cells were treated with YX39-103, YX39-105, and compound 21d at 0, 1, 2 and 5 μM for 4 days using 3D Cell Titer Glo (Promega) assay conditions.
MDA-MB231, MCF-7, OV2008 and Hey C2 cells (3,000 cells) were added to 8-well chamber slides (BD Biosciences) coated with 50 μl of growth factor-reduced Matrigel™ Matrix basement membrane (Corning). Treatment with degrader was begun later the same day. Media was replaced every 3 days. Cells were imaged using the Axiovert 25 inverted microscope (Carl Zeiss AB). CellTiter-Glo 3D Cell Viability Assay (Promega) was used to quantitate viability of cells grown in Matrigel™ in 96-well plates.

[2] = test system: MDA-MB231 cells; test: 3D Matrigel culture of MDA-MB231 triple negative breast cancer cells (growth, invasive branching, viability); type: cell-based; conditions: 1 μM, 3 days, 3D cultures (FIG. 6)
Method: FIG. 6a. PTK6 degraders, but not kinase activity inhibitor suppress viability in 3D cultures. MDA-MB231 triple negative breast cancer cells were seeded into 3D Matrigel cultures (4×10^3 cells/well) and treated with indicated PTK6 degraders, negative control compounds or PTK6 kinase activity inhibitor at 1 uM for 5 days with re-feeding of compound after 3 days in culture. Viability was assessed using 3D Cell Titer glo (Promega). FIG. 6b. Expression of PTK6 in cells treated with PTK6 degraders, negative control compounds or PTK6 kinase activity inhibitor was assessed after 24 hour treatment in monolayer cultures with 1 uM of compound. Cells were lysed and proteins were resolved and probed with anti-PTK6 antibody (Cell Signaling)
FIG. 12a. […] Expression of PTK6 in cells treated with PTK6 degraders, negative control compounds or PTK6 kinase activity inhibitor was assessed after 24 hour treatment in monolayer cultures with 1 uM of compound. […] Viability was assessed using 3D Cell Titer glo (Promega). […]
MDA-MB231 triple negative breast cancer cells were seeded into 3D Matrigel cultures (4×10^3 cells/well) and treated with indicated PTK6 degraders, negative control compounds or PTK6 kinase activity inhibitor at 1 uM for 6 days with re-feeding of compound after 3 days in culture (FIG. 12B). Viability was assessed using 3D Cell Titer glo (Promega). […]

[3] = biological target: T1, PTK6 (Homo sapiens, UniProt Q13882); test: Western blot of PTK6 protein levels in MDA-MB231 cells; type: cell-based; conditions: MDA-231 (MDA-MB231) cells, 500 nM, 24 hours, Western blot (FIGS. 3-5)
T1 construct: endogenous in cells; host or cells: MDA-MB231 cells (ATCC)
T1 sequence (Q13882 whole entry): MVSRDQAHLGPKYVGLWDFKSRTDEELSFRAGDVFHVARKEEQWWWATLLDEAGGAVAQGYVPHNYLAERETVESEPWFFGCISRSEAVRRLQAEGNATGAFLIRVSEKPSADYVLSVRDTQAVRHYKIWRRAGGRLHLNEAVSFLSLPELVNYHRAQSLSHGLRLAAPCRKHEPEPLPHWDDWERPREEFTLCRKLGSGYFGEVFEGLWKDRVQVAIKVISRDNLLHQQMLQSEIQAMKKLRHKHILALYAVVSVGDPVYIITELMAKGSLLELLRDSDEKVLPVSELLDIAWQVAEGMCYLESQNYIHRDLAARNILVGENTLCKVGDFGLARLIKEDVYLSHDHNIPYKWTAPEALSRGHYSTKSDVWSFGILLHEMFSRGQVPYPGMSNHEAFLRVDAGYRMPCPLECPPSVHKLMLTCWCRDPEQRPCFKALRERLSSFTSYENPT
Method: FIGS. 2-5. Effects of exemplary compounds on reducing PTK6 protein levels in breast cancer cells. Triple negative MDA-MB231 cells were treated for 24 hours with 500 nM, 2 uM or 2.5 uM of test compound and lysed. Proteins were resolved by SDS/PAGE and immunoblotted with antibody to PTK6 (Santa Cruz, Cell Signaling) or GAPDH loading control (Cell Signaling).
FIG. 13. PTK6 degraders suppress PTK6 expression. MDA-MB231 cells were treated with compounds (500 nM or 1 uM) for 24 hours in monolayer cultures. Cells were lysed and lysates were probed with anti-PTK6 antibody.
MDA-MB231 cells were treated with DMSO or indicated compounds at 2.5 uM, 2 uM or 500 nM for 24 hours.
MDA-MB231 cells were treated with compounds (500 nM or 1 uM) for 24 hours in monolayer cultures. Cells were lysed and lysates were probed with anti-PTK6 antibody.
(§1) Cells were lysed in 1% NP-40 lysis buffer containing NaF, Na3VO4, Leupeptin, PMSF, aprotinin, and phosphatase inhibitor (PhosSTOP, Roche) as described previously (Irie et al., 2010). Cleared cell lysates were stored at −80° C. and were analyzed by western analysis as described previously (Irie et al., 2010).

[4] = test system: CP70 cells; test: 3D culture viability of platinum resistant ovarian cancer cells CP70; type: cell-based; conditions: 2 uM, 6 days, 3D culture (FIG. 8)
Method: FIG. 8. Treatment with PTK6 degraders, but not kinase activity inhibitor, suppress viability of chemotherapy-resistant ovarian cancer cells (CP70). Cells were seeded into 3D Matrigel cultures and treated with compounds (2 uM) for 6 days. Viability was assessed using 3D Cell Titre glo assay (Promega)
Platinum resistant ovarian cancer cells CP70 were treated with PTK6 degrader or kinase inhibitor P21d (2 uM) for 6 days in 3D culture. Viability after 6 days was assessed by 3D Cell Titer glo.

[5] = compared with shRNA, all cell lines evaluated; cited from earlier work
[6] = test system: TNBC cells; conditions: compared with PTK6 shRNA; cited from earlier work
[7] = biological target: T1, PTK6; test: PTK6 degradation after PTK6 kinase inhibitor P21d pretreatment (Western); type: cell-based; conditions: MDA-MB231 cells, P21d 5 uM 2 hours, then degrader 24 hours (FIG. 10)
Method: FIG. 10. PTK6 kinase activity inhibitor pre-treatment prevents PTK6 degrader-dependent suppression of PTK6 expression. MDA-MB231 cells in monolayer cultures were pre-treated with DMSO or PTK6 kinase activity inhibitor (5 uM), then treated for an additional 24 hours with PTK6 degrader, YX39-105. Cells were lysed and expression of PTK6 was assessed by Western analysis.
MDA-MB231 cells pretreated with DMSO or PTK6 kinase activity inhibitor, P21d, (5 uM) for 2 hours were subsequently treated with PTK6 degrader YX39-105 for 24 hours. Expression of PTK6 was assessed by Western analysis.
as §1

[8] = biological target: T1, PTK6; test: PTK6 degradation after MG132 proteasome inhibitor pretreatment (Western); type: cell-based; conditions: MDA-MB231 cells, MG132 10 uM 2 hours, then degrader 4 hours (FIG. 9)
Method: FIG. 9. PTK6 degrader suppresses PTK6 expression in a proteasome-dependent manner. MDA-MB231 cells (left) or OV2008 cells (right) were pre-treated with DMSO or MG-132 (10 uM) for two hours, then treated for an additional 4 hours with DMSO or PTK6 degrader at the indicated concentrations.
MDA-MB231 cells were pre-treated with MG132 (10 uM) or DMSO for 2 hours, then treated for additional 4 hours with PTK6 degrader YX39-105 or DMSO. Cells were lysed and expression of PTK6 was assessed by Western analysis.
as §1

SMILES: Cc1ncsc1-c1ccc(CNC(=O)[C@@H]2C[C@@H](O)CN2C(=O)[C@@H](NC(=O)CCCCCCNC(=O)CN2CCN(C(=O)c3ccc(Nc4nc(C5CC5)cn5c(-c6cn[nH]c6)cnc45)c(F)c3)CC2)C(C)(C)C)cc1 [YX39-103, (2S,4R)-1-((S)-2-(7-(2-(4-(4-((6-cyclopropyl-3-(1H-pyrazol-4-yl)imidazo[1,2-a]pyrazin-8-yl)amino)-3-fluorobenzoyl)piperazin-1-yl)acetamido)heptanamido)-3,3-dimethylbutanoyl)-4-hydroxy-N-(4-(4-methylthiazol-5-yl)benzyl)pyrrolidine-2-carboxamide]
- viability of MCF7 cells [1]: significantly impaired viability of MCF7 cells in a dose-dependent manner
- growth and invasive branching in 3D cultures [2]: significantly suppressed growth and invasive branching
- reducing PTK6 protein levels / suppress PTK6 expression [3]: effective in reducing PTK6 protein levels
- viability of chemotherapy-resistant ovarian cells (CP70) [4]: Suppressed Viability

SMILES: O=C(c1ccc(Nc2nc(C3CC3)cn3c(-c4cn[nH]c4)cnc23)c(F)c1)N1CCOCC1 [compound 21d]
- 3D growth [5]: did not consistently phenocopy the effects of shRNA
- EMT regulation of TNBC cells [6]: phenocopied the effects of PTK6 shRNA

SMILES: Cc1ncsc1-c1ccc(CNC(=O)[C@@H]2C[C@@H](O)CN2C(=O)[C@@H](NC(=O)CCCCCCCCNC(=O)CN2CCN(C(=O)c3ccc(Nc4nc(C5CC5)cn5c(-c6cn[nH]c6)cnc45)c(F)c3)CC2)C(C)(C)C)cc1 [YX39-105, (2S,4R)-1-((S)-2-(9-(2-(4-(4-((6-cyclopropyl-3-(1H-pyrazol-4-yl)imidazo[1,2-a]pyrazin-8-yl)amino)-3-fluorobenzoyl)piperazin-1-yl)acetamido)nonanamido)-3,3-dimethylbutanoyl)-4-hydroxy-N-(4-(4-methylthiazol-5-yl)benzyl)pyrrolidine-2-carboxamide]
- viability of MCF7 cells [1]: significantly impaired viability of MCF7 cells in a dose-dependent manner
- growth and invasive branching in 3D cultures [2]: significantly suppressed growth and invasive branching
- reducing PTK6 protein levels / suppress PTK6 expression [3]: effective in reducing PTK6 protein levels
- PTK6 degradation with PTK6 inhibitor pretreatment [7]: Prevents PTK6 from being Degraded
- viability of chemotherapy-resistant ovarian cells (CP70) [4]: Suppressed Viability
- PTK6 degradation with MG132 pretreatment [8]: Prevents PTK6 from being Degraded

SMILES: Cc1ncsc1-c1ccc(CNC(=O)[C@@H]2C[C@@H](O)CN2C(=O)[C@@H](NC(=O)COCC(=O)N2CCN(C(=O)c3ccc(Nc4nc(C5CC5)cn5c(-c6cn[nH]c6)cnc45)c(F)c3)CC2)C(C)(C)C)cc1 [YX79-40, (2S,4R)-1-((S)-2-(2-(2-(4-(4-((6-cyclopropyl-3-(1H-pyrazol-4-yl)imidazo[1,2-a]pyrazin-8-yl)amino)-3-fluorobenzoyl)piperazin-1-yl)-2-oxoethoxy)acetamido)-3,3-dimethylbutanoyl)-4-hydroxy-N-(4-(4-methylthiazol-5-yl)benzyl)pyrrolidine-2-carboxamide]
- reducing PTK6 protein levels / suppress PTK6 expression [3]: potently suppress PTK6 expression

SMILES: O=C1CCC(N2C(=O)c3cccc(NCCOCCOCCC(=O)N4CCN(C(=O)c5ccc(Nc6nc(C7CC7)cn7c(-c8cn[nH]c8)cnc67)c(F)c5)CC4)c3C2=O)C(=O)N1 (stereo not shown) [YX79-36, 4-((2-(2-(3-(4-(4-((6-cyclopropyl-3-(1H-pyrazol-4-yl)imidazo[1,2-a]pyrazin-8-yl)amino)-3-fluorobenzoyl)piperazin-1-yl)-3-oxopropoxy)ethoxy)ethyl)amino)-2-(2,6-dioxopiperidin-3-yl)isoindoline-1,3-dione]
- reducing PTK6 protein levels / suppress PTK6 expression [3]: potently suppress PTK6 expression

SMILES: Cc1ncsc1-c1ccc(CNC(=O)[C@@H]2C[C@@H](O)CN2C(=O)[C@@H](NC(=O)COCCOCC(=O)N2CCN(C(=O)c3ccc(Nc4nc(C5CC5)cn5c(-c6cn[nH]c6)cnc45)c(F)c3)CC2)C(C)(C)C)cc1 [YX79-41, (2S,4R)-1-((S)-2-(2-(2-(2-(4-(4-((6-cyclopropyl-3-(1H-pyrazol-4-yl)imidazo[1,2-a]pyrazin-8-yl)amino)-3-fluorobenzoyl)piperazin-1-yl)-2-oxoethoxy)ethoxy)acetamido)-3,3-dimethylbutanoyl)-4-hydroxy-N-(4-(4-methylthiazol-5-yl)benzyl)pyrrolidine-2-carboxamide]
- reducing PTK6 protein levels / suppress PTK6 expression [3]: potently suppress PTK6 expression

SMILES: Cc1ncsc1-c1ccc(CNC(=O)[C@@H]2C[C@@H](O)CN2C(=O)[C@@H](NC(=O)CCCCCC(=O)N2CCN(C(=O)c3ccc(Nc4nc(C5CC5)cn5c(-c6cn[nH]c6)cnc45)c(F)c3)CC2)C(C)(C)C)cc1 [YX79-12, (2S,4R)-1-((S)-2-(7-(4-(4-((6-cyclopropyl-3-(1H-pyrazol-4-yl)imidazo[1,2-a]pyrazin-8-yl)amino)-3-fluorobenzoyl)piperazin-1-yl)-7-oxoheptanamido)-3,3-dimethylbutanoyl)-4-hydroxy-N-(4-(4-methylthiazol-5-yl)benzyl)pyrrolidine-2-carboxamide]
- reducing PTK6 protein levels / suppress PTK6 expression [3]: potently suppress PTK6 expression

Source: patent publication US12678507B2, “Protein tyrosine kinase 6 (PTK6) degradation / disruption compounds and methods of use” (Icahn School of Medicine at Mount Sinai, priority 2018, dated 2026)
